System: patients with seasonal allergic rhinitis (SAR)
Assay: MP 428 study: 14.3.5 Vital Sign Assessments, Safety Population
[1] = Day 14, Patients of Age 12 to 17
[2] = Day 14, Patients of Age 18 and Beyond
[3] = Day 14, baseline at Screening, Patients of Age 12 to 17
[4] = Day 14, baseline at Screening, Patients of Age 18 and Beyond
[5] = Day 14, baseline at Screening, Safety Population
[6] = Screening, Patients of Age 12 to 17
[7] = Screening, Patients of Age 18 and Beyond

CCC(=O)O[C@]1(C(=O)SCF)[C@H](C)C[C@H]2[C@@H]3C[C@H](F)C4=CC(=O)C=C[C@]4(C)[C@@]3(F)[C@@H](O)C[C@@]21C [Fluticasone, fluticasone propionate]
Diastolic Blood Pressure, Actual, Mean (Day 1, Safety Population): 74.0 mmHg | Diastolic Blood Pressure, Actual, Median (Day 1, Safety Population): 76.0 mmHg | Diastolic Blood Pressure, Actual, Min-Max (Day 1, Safety Population): 41-89 mmHg | Pulse Rate, Actual, Mean (Day 1, Safety Population): 75.0 bpm | Pulse Rate, Actual, Median (Day 1, Safety Population): 75.0 bpm | Pulse Rate, Actual, Min-Max (Day 1, Safety Population): 57-92 bpm | Respiration, Actual, Mean (Day 1, Safety Population): 15.8 bpm | Respiration, Actual, Median (Day 1, Safety Population): 16.0 bpm | Respiration, Actual, Min-Max (Day 1, Safety Population): 12-18 bpm | Systolic Blood Pressure, Actual, Mean (Day 1, Safety Population): 117.9 mmHg | Systolic Blood Pressure, Actual, Median (Day 1, Safety Population): 118.5 mmHg | Systolic Blood Pressure, Actual, Min-Max (Day 1, Safety Population): 93-142 mmHg | Temperature, Actual, Mean (Day 1, Safety Population): 97.89 ° F. | Temperature, Actual, Median (Day 1, Safety Population): 97.85 ° F. | Temperature, Actual, Min-Max (Day 1, Safety Population): 97.0-99.8 ° F. | Diastolic Blood Pressure, Actual, Mean (Day 7, Safety Population): 72.7 mmHg | Diastolic Blood Pressure, Actual, Median (Day 7, Safety Population): 74.0 mmHg | Diastolic Blood Pressure, Actual, Min-Max (Day 7, Safety Population): 58-86 mmHg | Diastolic Blood Pressure, Change from baseline, Mean (Day 7, Safety Population): −1.5 mmHg | Diastolic Blood Pressure, Change from baseline, Median (Day 7, Safety Population): −1.5 mmHg | Diastolic Blood Pressure, Change from baseline, Min-Max (Day 7, Safety Population): −15-19 mmHg | Pulse Rate, Actual, Mean (Day 7, Safety Population): 75.5 bpm | Pulse Rate, Actual, Median (Day 7, Safety Population): 74.0 bpm | Pulse Rate, Actual, Min-Max (Day 7, Safety Population): 52-102 bpm | Pulse Rate, Change from baseline, Mean (Day 7, Safety Population): 0.5 bpm | Pulse Rate, Change from baseline, Median (Day 7, Safety Population): −2.0 bpm | Pulse Rate, Change from baseline, Min-Max (Day 7, Safety Population): −29-38 bpm | Respiration, Actual, Mean (Day 7, Safety Population): 16.0 bpm | Respiration, Actual, Median (Day 7, Safety Population): 16.0 bpm | Respiration, Actual, Min-Max (Day 7, Safety Population): 12-20 bpm | Respiration, Change from baseline, Mean (Day 7, Safety Population): 0.2 bpm | Respiration, Change from baseline, Median (Day 7, Safety Population): 0.0 bpm | Respiration, Change from baseline, Min-Max (Day 7, Safety Population): −4-4 bpm | Systolic Blood Pressure, Actual, Mean (Day 7, Safety Population): 116.7 mmHg | Systolic Blood Pressure, Actual, Median (Day 7, Safety Population): 116.0 mmHg | Systolic Blood Pressure, Actual, Min-Max (Day 7, Safety Population): 95-142 mmHg | Systolic Blood Pressure, Change from baseline, Mean (Day 7, Safety Population): −1.4 mmHg | Systolic Blood Pressure, Change from baseline, Median (Day 7, Safety Population): −0.5 mmHg | Systolic Blood Pressure, Change from baseline, Min-Max (Day 7, Safety Population): −21-15 mmHg | Temperature, Actual, Mean (Day 7, Safety Population): 97.90 ° F. | Temperature, Actual, Median (Day 7, Safety Population): 97.95 ° F. | Temperature, Actual, Min-Max (Day 7, Safety Population): 96.0-98.9 ° F. | Temperature, Change from baseline, Mean (Day 7, Safety Population): −0.03 ° F. | Temperature, Change from baseline, Median (Day 7, Safety Population): 0.00 ° F. | Temperature, Change from baseline, Min-Max (Day 7, Safety Population): −1.8-1.8 ° F. | Body Weight for Patients of Age 12 to 17, Actual, Mean [1]: 135.8 lb | Body Weight for Patients of Age 12 to 17, Actual, Median [1]: 121.5 lb | Body Weight for Patients of Age 12 to 17, Actual, Min-Max [1]: 87-197 lb | Body Weight for Patients of Age 18 and Beyond, Actual, Mean [2]: 178.2 lb | Body Weight for Patients of Age 18 and Beyond, Actual, Median [2]: 172.0 lb | Body Weight for Patients of Age 18 and Beyond, Actual, Min-Max [2]: 115-265 lb | Body Weight, Actual, Mean (Day 14, Safety Population): 173.0 lb | Body Weight, Actual, Median (Day 14, Safety Population): 168.0 lb | Body Weight, Actual, Min-Max (Day 14, Safety Population): 87-265 lb | Diastolic Blood Pressure, Actual, Mean (Day 14, Safety Population): 73.6 mmHg | Diastolic Blood Pressure, Actual, Median (Day 14, Safety Population): 74.0 mmHg | Diastolic Blood Pressure, Actual, Min-Max (Day 14, Safety Population): 54-90 mmHg | Diastolic Blood Pressure, Change from baseline, Mean (Day 14, Safety Population): −0.4 mmHg | Diastolic Blood Pressure, Change from baseline, Median (Day 14, Safety Population): 0.0 mmHg | Diastolic Blood Pressure, Change from baseline, Min-Max (Day 14, Safety Population): −24-22 mmHg | Pulse Rate, Actual, Mean (Day 14, Safety Population): 75.3 bpm | Pulse Rate, Actual, Median (Day 14, Safety Population): 74.0 bpm | Pulse Rate, Actual, Min-Max (Day 14, Safety Population): 53-95 bpm | Pulse Rate, Change from baseline, Mean (Day 14, Safety Population): 0.3 bpm | Pulse Rate, Change from baseline, Median (Day 14, Safety Population): 1.0 bpm | Pulse Rate, Change from baseline, Min-Max (Day 14, Safety Population): −22-23 bpm | Respiration, Actual, Mean (Day 14, Safety Population): 15.8 bpm | Respiration, Actual, Median (Day 14, Safety Population): 16.0 bpm | Respiration, Actual, Min-Max (Day 14, Safety Population): 12-20 bpm | Respiration, Change from baseline, Mean (Day 14, Safety Population): 0.0 bpm | Respiration, Change from baseline, Median (Day 14, Safety Population): 0.0 bpm | Respiration, Change from baseline, Min-Max (Day 14, Safety Population): −4-4 bpm | Systolic Blood Pressure, Actual, Mean (Day 14, Safety Population): 118.9 mmHg | Systolic Blood Pressure, Actual, Median (Day 14, Safety Population): 117.0 mmHg | Systolic Blood Pressure, Actual, Min-Max (Day 14, Safety Population): 98-170 mmHg | Systolic Blood Pressure, Change from baseline, Mean (Day 14, Safety Population): 1.0 mmHg | Systolic Blood Pressure, Change from baseline, Median (Day 14, Safety Population): 1.5 mmHg | Systolic Blood Pressure, Change from baseline, Min-Max (Day 14, Safety Population): −20-40 mmHg | Temperature, Actual, Mean (Day 14, Safety Population): 97.86 ° F. | Temperature, Actual, Median (Day 14, Safety Population): 97.90 ° F. | Temperature, Actual, Min-Max (Day 14, Safety Population): 96.2-99.1 ° F. | Temperature, Change from baseline, Mean (Day 14, Safety Population): −0.03 ° F. | Temperature, Change from baseline, Median (Day 14, Safety Population): 0.10 ° F. | Temperature, Change from baseline, Min-Max (Day 14, Safety Population): −1.6-2.0 ° F. | Body Weight for Patients of Age 12 to 17, Change from baseline, Mean [3]: −0.5 lb | Body Weight for Patients of Age 12 to 17, Change from baseline, Median [3]: −0.5 lb | Body Weight for Patients of Age 12 to 17, Change from baseline, Min-Max [3]: −2-2 lb | Body Weight for Patients of Age 18 and Beyond, Change from baseline, Mean [4]: −0.5 lb | Body Weight for Patients of Age 18 and Beyond, Change from baseline, Median [4]: 0.0 lb | Body Weight for Patients of Age 18 and Beyond, Change from baseline, Min-Max [4]: −6-7 lb | Body Weight, Change from baseline, Mean [5]: −0.5 lb | Body Weight, Change from baseline, Median [5]: 0.0 lb | Body Weight, Change from baseline, Min-Max [5]: −6-7 lb | Body Weight for Patients of Age 12 to 17, Actual, Mean [6]: 136.3 lb | Body Weight for Patients of Age 12 to 17, Actual, Median [6]: 122.5 lb | Body Weight for Patients of Age 12 to 17, Actual, Min-Max [6]: 85-199 lb | Body Weight for Patients of Age 18 and Beyond, Actual, Mean [7]: 177.9 lb | Body Weight for Patients of Age 18 and Beyond, Actual, Median [7]: 169.5 lb | Body Weight for Patients of Age 18 and Beyond, Actual, Min-Max [7]: 117-269 lb | Body Weight, Actual, Mean (Screening, Safety Population): 172.9 lb | Body Weight, Actual, Median (Screening, Safety Population): 168.5 lb | Body Weight, Actual, Min-Max (Screening, Safety Population): 85-269 lb | Diastolic Blood Pressure, Actual, Mean (Screening, Safety Population): 75.6 mmHg | Diastolic Blood Pressure, Actual, Median (Screening, Safety Population): 78.0 mmHg | Diastolic Blood Pressure, Actual, Min-Max (Screening, Safety Population): 50-95 mmHg | Pulse Rate, Actual, Mean (Screening, Safety Population): 75.5 bpm | Pulse Rate, Actual, Median (Screening, Safety Population): 78.0 bpm | Pulse Rate, Actual, Min-Max (Screening, Safety Population): 50-103 bpm | Respiration, Actual, Mean (Screening, Safety Population): 15.7 bpm | Respiration, Actual, Median (Screening, Safety Population): 16.0 bpm | Respiration, Actual, Min-Max (Screening, Safety Population): 12-20 bpm | Systolic Blood Pressure, Actual, Mean (Screening, Safety Population): 121.2 mmHg | Systolic Blood Pressure, Actual, Median (Screening, Safety Population): 119.5 mmHg | Systolic Blood Pressure, Actual, Min-Max (Screening, Safety Population): 96-156 mmHg | Temperature, Actual, Mean (Screening, Safety Population): 98.04 ° F. | Temperature, Actual, Median (Screening, Safety Population): 98.00 ° F. | Temperature, Actual, Min-Max (Screening, Safety Population): 96.9-99.3 ° F.
